Measurements published in the supplement of paper PMC10331698.
± gives the standard deviation of the averaged measurements.

Tests used:
Assay in all cases: level (log10 ratio to DMSO vehicle control); higher = higher biomarker level / cell amount than vehicle control
[1] = compound: FC(F)(F)C(F)(F)C(F)(F)C(F)(F)C(F)(F)C(F)(F)C(F)(F)I [1-Iodopentadecafluoroheptane]; settings: in DMSO
Protocol: (§1)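 BioMAP Diversity Plus panel of 12 human primary cell co-culture systems (3C, 4H, LPS, SAg, BT, BF4T, BE3C, CASM3C, HDF3CGF, KF3CT, MyoF, Mphg). Compounds were added 1 h before stimulation and left for 24 h (MyoF 48 h; BT 72 h for soluble read-outs or 6 d for IgG). Biomarkers were read by ELISA, cytotoxicity by SRB, PBMC viability and proliferation by Alamar Blue. Each well value was divided by the mean of 8 DMSO control wells on the same plate and log10 transformed; duplicate blinded samples were tested at 4 concentrations.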

[2] = compound: COC(=O)C(F)(F)C(F)(F)OC(F)(C(F)(F)F)C(F)(F)OC(F)=C(F)F [Methyl perfluoro(3-(1-ethenyloxypropan-2-yloxy)propanoate)]; settings: in DMSO
Protocol: as §1

[3] = compound: O=S(=O)(O)C(F)(F)C(F)(F)C(F)(F)C(F)(F)C(F)(F)C(F)(F)C(F)(F)C(F)(F)C(F)(F)C(F)(F)F [Sodium perfluorodecanesulfonate]; settings: in DMSO
Protocol: as §1

[4] = compound: O=C(O)C(F)(F)C(F)(F)C(F)(F)C(F)(F)C(F)(F)C(F)(F)C(F)(F)C(F)(F)C(F)(F)C(F)F [11-H-Perfluoroundecanoic acid]; settings: in DMSO
Protocol: as §1

[5] = compound: O=C(O)C=CC(F)(C(F)(F)F)C(F)(F)F [3-(Perfluoroisopropyl)-2-propenoic acid]; settings: in DMSO
Protocol: as §1

[6] = compound: C=C(C)C(=O)OCCC(F)(F)C(F)(F)C(F)(F)C(F)(F)C(F)(F)C(F)(F)F [6:2 Fluorotelomer methacrylate]; settings: in DMSO
Protocol: as §1

Heptafluorobutyl iodide = compound: FC(F)(F)C(F)(F)C(F)(F)CI [Heptafluorobutyl iodide]; settings: in DMSO
Protocol: as §1

[7] = compound: C=CC(=O)OCC(F)(F)C(F)(F)C(F)(F)COC(=O)C=C [1H,1H,5H,5H-Perfluoro-1,5-pentanediol diacrylate]; settings: 6700 nM; in DMSO
Protocol: as §1

Row | Test System | level (log10) ([1]; 6700 nM) | level (log10) ([1]; 20000 nM) | level (log10) ([2]; 6700 nM) | level (log10) ([2]; 20000 nM) | level (log10) ([3]; 1500 nM) | level (log10) ([3]; 4400 nM) | level (log10) ([3]; 13000 nM) | level (log10) ([3]; 40000 nM) | level (log10) ([4]; 6700 nM) | level (log10) ([4]; 20000 nM) | level (log10) ([5]; 6700 nM) | level (log10) ([5]; 20000 nM) | level (log10) ([5]; 60000 nM) | level (log10) ([6]; 6700 nM) | level (log10) ([6]; 20000 nM) | level (log10) ([6]; 60000 nM) | level (log10) (Heptafluorobutyl iodide; 6700 nM) | level (log10) (Heptafluorobutyl iodide; 20000 nM) | level (log10) (Heptafluorobutyl iodide; 60000 nM) | level (log10) [7]
1 | 3C:CXCL8/IL-8 | 0.004 ± 0.0057 | 0.0655 ± 0.021 | 0.0075 ± 0.046 | 0.0485 ± 0.061 | 0.035 ± 0.035 | 0.021 ± 0.013 | 0.03 ± 0.017 | 0.0725 ± 0.013 | 0.012 ± 0.0014 | 0.011 ± 0.0071 | -0.001 ± 0.038 | -0.0275 ± 0.0092 | 0.028 ± 0.033 | 0.018 ± 0.021 | 0.024 ± 0.016 | 0.0505 ± 0.018 | -0.026 ± 0.018 | -0.0225 ± 0.019 | -0.0025 ± 0.04 | -0.0045 ± 0.018
2 | 3C:HLA-DR | -0.019 ± 0.0057 | -0.0075 ± 0.015 | 0.002 ± 0.0014 | 0.0075 ± 0.0078 | -0.011 ± 0.011 | -0.021 ± 0.02 | -0.018 ± 0.0085 | -0.0615 ± 0.016 | 0.0055 ± 0.039 | -0.001 ± 0.062 | 0.0095 ± 0.005 | -0.0135 ± 0.022 | -0.003 ± 0.028 | -0.0015 ± 0.0092 | -0.007 ± 0.0071 | -0.005 ± 0.0099 | -0.0255 ± 0.013 | -0.0125 ± 0.016 | -0.0045 ± 0.013 | -0.092 ± 0.078
3 | 3C:Proliferation | 0.0035 ± 0.013 | -0.0125 ± 0.0078 | -0.056 ± 0.048 | -0.111 ± 0.0092 | -0.0815 ± 0.013 | -0.056 ± 0.017 | -0.038 ± 0.02 | -0.229 ± 0.011 | -0.0185 ± 0.074 | 0.0405 ± 0.016 | -0.0185 ± 0.09 | -0.002 ± 0.037 | -0.0145 ± 0.049 | 0.0005 ± 0.028 | -0.003 ± 0.089 | -0.013 ± 0.0085 | -0.0165 ± 0.00071 | 0.005 ± 0.023 | 0.014 ± 0.041 | -0.379 ± 0.12
4 | 3C:SRB | -0.001 | 0.001 ± 0.0014 | 0.006 ± 0.0071 | 0.004 ± 0.0042 | -0.0035 ± 0.0035 | -0.0155 ± 0.016 | -0.04 ± 0.021 | -0.191 ± 0.0028 | 0.0095 ± 0.012 | 0.01 ± 0.025 | 0.0035 ± 0.0078 | 0.0055 ± 0.019 | 0.0155 ± 0.015 | -0.004 ± 0.014 | -0.0025 ± 0.0078 | 0 ± 0.018 | -0.0045 ± 0.0064 | -0.0025 ± 0.012 | 0.0025 ± 0.021 | -0.0305 ± 0.011
5 | 4H:CCL26/Eotaxin-3 | 0.0365 ± 0.016 | 0.032 ± 0.027 | -0.001 ± 0.016 | -0.0425 ± 0.026 | -0.038 ± 0.0085 | -0.052 ± 0.0014 | -0.0885 ± 0.037 | -0.129 ± 0.063 | -0.0435 ± 0.012 | -0.0535 ± 0.037 | -0.011 ± 0.0014 | -0.011 ± 0.0014 | 0.016 ± 0.0085 | 0.016 | 0.006 ± 0.048 | -0.009 ± 0.05 | 0.0215 ± 0.023 | 0.0385 ± 0.023 | 0.0485 ± 0.032 | -0.214 ± 0.037
6 | 4H:CD62P/P-selectin | 0.0125 ± 0.021 | 0.0035 ± 0.022 | 0.0115 ± 0.079 | 0.0095 ± 0.073 | -0.0165 ± 0.021 | 0.034 ± 0.018 | 0.064 ± 0.03 | 0.08 ± 0.033 | 0.0165 ± 0.0092 | 0.035 ± 0.031 | -0.001 ± 0.02 | -0.0105 ± 0.012 | 0.023 ± 0.0085 | -0.033 ± 0.072 | -0.0065 ± 0.044 | -0.01 ± 0.0014 | -0.0515 ± 0.06 | -0.058 ± 0.061 | -0.0135 ± 0.053 | -0.0825 ± 0.018
7 | 4H:CD87/uPAR | -0.013 ± 0.023 | 0.0035 ± 0.012 | 0.0215 ± 0.019 | 0.047 ± 0.044 | 0.0235 ± 0.056 | 0.0145 ± 0.022 | 0.0455 ± 0.0064 | 0.0065 ± 0.013 | -0.0115 ± 0.033 | -0.0295 ± 0.05 | 0.034 ± 0.016 | 0.055 ± 0.054 | 0.105 ± 0.027 | -0.015 ± 0.025 | 0.0015 ± 0.019 | -0.0095 ± 0.0035 | 0.0585 ± 0.04 | 0.0055 ± 0.0035 | -0.024 ± 0.025 | -0.0665 ± 0.13
